Measurements published in patent US20080220078A1, “Pharmaceutical Formulations” (Vectura Limited, priority 2004, published 2008).
Values joined by “and” are separate entries in the source; they are usually repeats but may differ in a detail not shown here. Identical values can stand only once.

Columns and labels:
Assay type in all cases: physicochemical
[1] = Zeta potential (Zetasizer 3000HS, in cyclohexane); conditions: average of 10 measurements
Procedure: In addition, the powders were studied using the Zetasizer 3000HS instrument (Malvern Instruments Ltd, UK.) Each sample was tested in cyclohexane, and zeta potential measurements were obtained. Zetasizer measures the zeta potential. This is a measure of the electric potential on a particle in suspension in the hydrodynamic plane of shear. The results are summarized as follows: Each result is an average of 10 measurements.

[2] = XPS surface analysis of powders
Description: The aim of the analysis is to identify the presence of magnesium stearate on the surface of a model of a co-micronised active agent. […] The aim was to show the contrast in surface coating efficiency. The model material, representing the micronised active agent particles, was micronised lactose.
The powders have been analyzed using both TOF-SIMS and XPS. TOF-SIMS provides a mass spectrum of the outermost 1 nm of the surface, and is used here to asses whether the magnesium stearate coverage of the lactose is complete or in patches. XPS provides a spectrum representative of the outermost 10 nm of the surface of the sample and is used here in comparison to the TOF-SIMS data to assess the depth of coverage of the magnesium stearate on the lactose surface.
XPS is a surface analytical technique that can quantify the amount of different chemical species in the outermost 10 nm of a surface. In the simplest form of analysis, XPS measures the relative amount of each element present. Quantitative elemental identification can be achieved down to 1 atom in 1000. AU elements present can be detected with the exception of hydrogen. Elemental analysis may be essential in determining the amount of a surface contaminant or to quantify any surface species with a unique elemental type.

[3] = Density Measurements (poured and tapped density)
Procedure: Approximately 5 g of material was placed in a measuring cylinder and the volume noted. The poured density was calculated. The measuring cylinder was tapped 100 times and the volume noted. Tapping was repeated to constant volume and the tapped density calculated. The equipment used was a […] Volumeter STA […].

[4] = single measurements (Measurement 1, Measurement 2)

Molecule: OC[C@H]1O[C@@H](O[C@H]2[C@H](O)[C@@H](O)C(O)O[C@@H]2CO)[C@H](O)[C@@H](O)[C@H]1O (some centres unmarked) [Lactose]
- Zeta Potential [1]: 35.5 mV
- Area % of C 1s Spectral Envelope, C—C ([2]; Mean): 5.5%
- Area % of C 1s Spectral Envelope, C—O ([2]; Mean): 64.3%
- Area % of C 1s Spectral Envelope, O—C—O ([2]; Mean): 20.0%
- Area % of C 1s Spectral Envelope, O—C═O ([2]; Mean): 8.7%
- Relative Atomic Percentage Composition, C ([2]; Mean): 54.9%
- Relative Atomic Percentage Composition, Mg ([2]; Mean): <0.1%
- Relative Atomic Percentage Composition, O ([2]; Mean): 45.1%
- Area % of C 1s Spectral Envelope, C—C [2, 4]: 6.4% and 4.4%
- Area % of C 1s Spectral Envelope, C—O [2, 4]: 70.9% and 57.8%
- Area % of C 1s Spectral Envelope, O—C—O [2, 4]: 18.0% and 22.0%
- Area % of C 1s Spectral Envelope, O—C═O [2, 4]: 4.7% and 12.8%
- Relative Atomic Percentage Composition, C [2, 4]: 54.47% and 55.29%
- Relative Atomic Percentage Composition, O [2, 4]: 45.43% and 44.71%

Molecule: Salbutamol sulphate
- Number of Taps to Constant Volume ([3]; Stampf Volumeter STA V2003): 200
- Poured Density ([3]; approximately 5 g powder in measuring cylinder): 0.19 g/ml
- Tapped Density ([3]; tapped to constant volume): 0.24 g/mL
